According to US8648076B2, “Cysteine protease inhibitors and their therapeutic applications” (Hybrigenics SA, priority 2005, dated 2014):
Like-named read-outs stand apart in the source and are kept apart here.

Tests used:
[1] = tested on: HCT116 colon cancer cells; test: HCT116 cell viability and proliferation assay (MTS); assay type: cell-based; conditions: HCT116 cells, 72 hours incubation, MTS, mean of 3 independent experiments, read-out: HCT116 D3 GI50
[2] = tested on: PC-3 prostate cancer cells; test: PC3 cell viability and proliferation assay (MTS); assay type: cell-based; conditions: PC3 cells, 72 hours incubation, MTS, mean of 3 independent experiments, read-out: PC3 D3 GI50
Uch-L3 = molecular target: T1, Uch-L3 (Homo sapiens, UniProt P15374); test: UCH-L3 activity assay; assay type: biochemical; conditions: 400 nM Ub-AMC, 13 pM enzyme, 30 min pre-incubation at 25° C., 60 min at 37° C.; sigmoidal fit; AF: Autofluorescent; read-out: Uch-L3 (inhibition of cysteine protease activity)
T1 sequence (P15374 1-230): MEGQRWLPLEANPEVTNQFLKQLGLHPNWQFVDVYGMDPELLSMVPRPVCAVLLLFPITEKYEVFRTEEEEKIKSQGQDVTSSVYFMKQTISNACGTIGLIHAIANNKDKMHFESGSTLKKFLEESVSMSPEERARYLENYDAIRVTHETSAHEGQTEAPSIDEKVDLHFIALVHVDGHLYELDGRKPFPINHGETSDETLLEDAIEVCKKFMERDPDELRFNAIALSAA
Protocol: Bovine Serum Albumin 0.05 mg·ml^−1 pH7.6). Compounds stocks (100 mM) were stored at −20° C. in DMSO. […] Reactions were performed as duplicates in Black LJL 96 well plates (HE microplates; Molecular Devices; 20 μl final reaction volume). The substrate concentration for Uch-L3 was 400 nM Ub-AMC (Boston Biochem). The concentration of the enzyme (Uch-L3) in specificity assays was 13 pM. The concentrations were determined in order to perform specificity assays under initial velocities at fixed substrate concentration. Compounds were pre-incubated with enzymes for 30 minutes at 25° C. Reactions were initiated by addition of substrate to the plates containing the enzymes (+/−compounds) diluted in assay buffer. Reactions were incubated for 60 minutes at 37° C. Reactions were stopped by adding acetic acid (100 mM final). Readings were performed on a Pherastar Fluorescent Reader (BMG). δ Emission 380 nm; δ Excitation=460 nm. Data (mean values+/− standard deviation) were analyzed as % of control (no compound) and plotted as percentage versus the Log of the compound concentration using GraphPad (Prism). Data were fitted to a sigmoidal model (variable slope).

USP7 = molecular target: T2, USP7 (Homo sapiens, UniProt Q93009); test: USP7 activity assay; assay type: biochemical; conditions: 400 nM Ub-AMC, 152 pM enzyme, 30 min pre-incubation at 25° C., 60 min at 37° C.; sigmoidal fit; read-out: USP 7 (inhibition of cysteine protease activity)
T2 construct: His tag (from pFastBac-HT vector) (N); made in house; host or cells: insect cells (Sf9 or High Five), baculovirus
T2 sequence (Q93009 whole entry): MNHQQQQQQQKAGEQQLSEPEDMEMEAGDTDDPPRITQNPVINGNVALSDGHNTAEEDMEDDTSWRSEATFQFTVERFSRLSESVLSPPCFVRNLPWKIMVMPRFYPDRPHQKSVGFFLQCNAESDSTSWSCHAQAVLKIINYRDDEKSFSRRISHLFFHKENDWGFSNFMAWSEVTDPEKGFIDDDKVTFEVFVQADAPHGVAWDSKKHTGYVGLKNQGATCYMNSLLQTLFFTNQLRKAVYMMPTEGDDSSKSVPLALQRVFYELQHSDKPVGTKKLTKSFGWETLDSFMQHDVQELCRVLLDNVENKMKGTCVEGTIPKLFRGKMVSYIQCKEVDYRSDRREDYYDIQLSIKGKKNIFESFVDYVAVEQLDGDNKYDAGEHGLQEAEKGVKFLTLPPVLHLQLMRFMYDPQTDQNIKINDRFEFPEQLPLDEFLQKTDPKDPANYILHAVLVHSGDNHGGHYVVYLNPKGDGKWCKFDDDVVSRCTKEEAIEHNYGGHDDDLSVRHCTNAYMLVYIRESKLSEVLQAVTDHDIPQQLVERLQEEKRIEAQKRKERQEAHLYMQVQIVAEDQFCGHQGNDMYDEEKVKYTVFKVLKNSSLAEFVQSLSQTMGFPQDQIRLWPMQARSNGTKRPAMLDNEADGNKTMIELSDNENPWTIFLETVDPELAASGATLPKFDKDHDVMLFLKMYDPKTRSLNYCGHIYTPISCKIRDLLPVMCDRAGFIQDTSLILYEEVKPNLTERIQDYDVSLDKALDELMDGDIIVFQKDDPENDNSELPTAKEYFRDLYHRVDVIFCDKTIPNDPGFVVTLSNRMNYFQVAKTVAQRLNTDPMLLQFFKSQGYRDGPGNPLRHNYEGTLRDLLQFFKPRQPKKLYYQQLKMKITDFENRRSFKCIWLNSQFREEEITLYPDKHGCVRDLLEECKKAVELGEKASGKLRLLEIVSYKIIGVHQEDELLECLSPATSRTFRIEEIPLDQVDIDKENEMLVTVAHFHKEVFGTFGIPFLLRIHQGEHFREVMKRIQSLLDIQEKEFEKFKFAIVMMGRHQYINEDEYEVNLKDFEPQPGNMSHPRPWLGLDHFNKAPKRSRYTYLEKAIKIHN

USP8 = molecular target: T3, USP8 (Homo sapiens, UniProt P40818); test: USP8 activity assay; assay type: biochemical; conditions: 400 nM Ub-AMC, pH8.8, 30 min pre-incubation at 25° C., 60 min at 37° C.; sigmoidal fit; AF: Autofluorescent; read-out: USP 8 (inhibition of cysteine protease activity)
T3 sequence (P40818 1-1118): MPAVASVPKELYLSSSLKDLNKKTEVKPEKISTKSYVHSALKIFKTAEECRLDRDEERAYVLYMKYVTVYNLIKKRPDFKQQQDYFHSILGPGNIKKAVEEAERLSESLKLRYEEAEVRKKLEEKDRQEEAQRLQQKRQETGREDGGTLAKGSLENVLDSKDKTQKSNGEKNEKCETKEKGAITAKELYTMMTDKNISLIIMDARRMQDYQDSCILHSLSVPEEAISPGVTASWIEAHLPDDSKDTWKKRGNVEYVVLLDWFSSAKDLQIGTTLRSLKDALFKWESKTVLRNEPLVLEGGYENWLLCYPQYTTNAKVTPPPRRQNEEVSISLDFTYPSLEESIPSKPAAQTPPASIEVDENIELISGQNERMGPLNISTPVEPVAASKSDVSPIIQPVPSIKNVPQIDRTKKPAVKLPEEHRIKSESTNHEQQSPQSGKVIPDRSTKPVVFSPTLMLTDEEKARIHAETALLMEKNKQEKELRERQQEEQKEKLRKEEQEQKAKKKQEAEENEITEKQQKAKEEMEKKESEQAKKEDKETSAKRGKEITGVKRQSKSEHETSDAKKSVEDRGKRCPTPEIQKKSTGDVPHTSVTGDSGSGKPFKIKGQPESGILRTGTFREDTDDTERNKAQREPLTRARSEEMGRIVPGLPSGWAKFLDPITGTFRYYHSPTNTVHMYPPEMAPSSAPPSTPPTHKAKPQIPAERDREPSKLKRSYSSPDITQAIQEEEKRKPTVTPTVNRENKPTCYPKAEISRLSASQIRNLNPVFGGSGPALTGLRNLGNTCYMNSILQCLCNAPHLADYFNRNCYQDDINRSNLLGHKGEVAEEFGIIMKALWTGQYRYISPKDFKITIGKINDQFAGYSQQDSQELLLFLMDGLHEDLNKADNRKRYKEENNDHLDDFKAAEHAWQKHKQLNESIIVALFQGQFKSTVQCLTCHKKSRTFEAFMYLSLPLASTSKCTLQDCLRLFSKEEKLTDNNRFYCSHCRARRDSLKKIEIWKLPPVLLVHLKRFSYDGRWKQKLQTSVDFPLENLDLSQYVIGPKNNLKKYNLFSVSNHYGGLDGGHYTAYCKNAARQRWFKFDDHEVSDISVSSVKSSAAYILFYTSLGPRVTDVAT

| SMILES | GI50 ([1]; Homo sapiens, HCT-116) [nM] | GI50 ([2]; Homo sapiens, PC-3) [nM] | also measured |
| --- | --- | --- | --- |
| COc1nc2c(nc1C#N)C(O)c1ccccc1-2 (stereo not shown) [Example 2, 9-hydroxy-3-methoxy-9H-indeno[1,2-b]pyrazine-2-carbonitrile] | > 10000 | – | GI50 ([2]; Homo sapiens, PC-3, 72 h): > 10000 nM |
| CON=C1c2cc(Cl)ccc2-c2nc(C#N)c(C#N)nc21 [Example 24a, 7-Chloro-9-methoxyimino-9H-indeno[1,2-b]pyrazine-2,3-dicarbonitrile] | 500 | 390 | – |
| C=CCON=C1c2cc(Cl)ccc2-c2nc(C#N)c(C#N)nc21 [Example 24b, 9-Allyloxyimino-7-chloro-9H-indeno[1,2-b]pyrazine-2,3-dicarbonitrile] | 940 | 620 | – |
| N#Cc1nc2c(nc1C#N)-c1cc(Cl)ccc1C2=O [Example 25, 6-Chloro-9-oxo-9H-indeno[1,2-b]pyrazine-2,3-dicarbonitrile] | 190 | 1400 | – |
| N#Cc1nc2c(nc1C(N)=O)-c1ccccc1/C2=N\O [Example 33, 2-cyano-9-[hydroxyimino]-9H-indeno[1,2-b]pyrazine-3-carboxylic acid amide] | – | – | IC50 (Uch-L3): 596 nM; IC50 (USP7): 13000 nM; GI50 [1]: 1600 nM; GI50 [2]: 1200 nM; IC50 (USP8): 733 nM |
